What was measured:
[1] = target: T1, Acid-sensing ion channel 3 (Homo sapiens, UniProt Q9UHC3); assay: Inhibition of human ASIC3 expressed in HEK293 cells assessed as inhibition of acid-evoked current by manual patch-clamp electrophysiology assay; format: cell-based
T1 sequence (Q9UHC3 whole entry): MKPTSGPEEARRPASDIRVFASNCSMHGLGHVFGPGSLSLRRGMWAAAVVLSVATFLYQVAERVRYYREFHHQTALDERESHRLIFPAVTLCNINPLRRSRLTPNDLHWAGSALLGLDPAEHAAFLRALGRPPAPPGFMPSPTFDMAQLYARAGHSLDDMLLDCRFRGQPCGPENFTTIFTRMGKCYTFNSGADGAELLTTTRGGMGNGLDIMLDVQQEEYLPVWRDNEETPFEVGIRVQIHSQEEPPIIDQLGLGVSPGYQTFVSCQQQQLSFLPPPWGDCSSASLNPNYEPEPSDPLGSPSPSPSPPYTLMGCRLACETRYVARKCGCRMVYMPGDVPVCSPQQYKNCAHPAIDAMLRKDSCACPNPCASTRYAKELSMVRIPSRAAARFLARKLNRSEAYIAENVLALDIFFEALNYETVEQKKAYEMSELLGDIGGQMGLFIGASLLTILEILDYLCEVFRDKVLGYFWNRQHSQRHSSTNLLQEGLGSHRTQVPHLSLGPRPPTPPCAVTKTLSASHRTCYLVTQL

[2] = target: Voltage-dependent L-type calcium channel subunit alpha-1C (Homo sapiens, UniProt Q13936); assay: Inhibition of Cav1.2
CYP3A4 = CYP3A4 (Homo sapiens, UniProt P08684); assay: Inhibition of CYP3A4 at 10 uM; format: ADME
CYP2D6 = CYP2D6 (Homo sapiens, UniProt P10635); assay: Inhibition of CYP2D6 at 10 uM; format: ADME
CYP2C9 = CYP2C9 (Homo sapiens, UniProt P11712); assay: Inhibition of CYP2C9 at 10 uM; format: ADME
[3] = Plasma protein binding in human; format: ADME, cell-free; conditions: read-out: PPB (converted)
[4] = Lipophilicity, log D of the compound by HPLC; format: physicochemical
[5] = Plasma protein binding in rat; format: ADME, cell-free; conditions: read-out: PPB (converted)
[6] = target: Voltage-gated inwardly rectifying potassium channel KCNH2 (Homo sapiens, UniProt Q12809); assay: Binding affinity to human ERG
[7] = Half life in rat; format: ADME, organism-based; conditions: in vivo
[8] = Clearance in rat; format: ADME, organism-based; conditions: in vivo
[9] = Volume of distribution in rat; format: ADME, organism-based; conditions: in vivo
[10] = target: T2, Acid-sensing ion channel 3 (Homo sapiens) (UniProt Q9UHC3); assay: Inhibition of human ASIC3 expressed in HEK293 cells assessed as inhibition of acid-evoked current at 1000 uM by manual patch-clamp electrophysiology assay; format: cell-based
T2 sequence (whole entry): T1 sequence (Q9UHC3 whole entry)

[11] = target: T2, Acid-sensing ion channel 3 (Homo sapiens); assay: Inhibition of human ASIC3 expressed in HEK293 cells assessed as inhibition of acid-evoked current at 10 uM by manual patch-clamp electrophysiology assay; format: cell-based
[12] = target: T2, Acid-sensing ion channel 3 (Homo sapiens); assay: Inhibition of human ASIC3 expressed in HEK293 cells assessed as inhibition of acid-evoked current at 500 uM by manual patch-clamp electrophysiology assay; format: cell-based

Sequence of CYP2D6 (P10635 whole entry): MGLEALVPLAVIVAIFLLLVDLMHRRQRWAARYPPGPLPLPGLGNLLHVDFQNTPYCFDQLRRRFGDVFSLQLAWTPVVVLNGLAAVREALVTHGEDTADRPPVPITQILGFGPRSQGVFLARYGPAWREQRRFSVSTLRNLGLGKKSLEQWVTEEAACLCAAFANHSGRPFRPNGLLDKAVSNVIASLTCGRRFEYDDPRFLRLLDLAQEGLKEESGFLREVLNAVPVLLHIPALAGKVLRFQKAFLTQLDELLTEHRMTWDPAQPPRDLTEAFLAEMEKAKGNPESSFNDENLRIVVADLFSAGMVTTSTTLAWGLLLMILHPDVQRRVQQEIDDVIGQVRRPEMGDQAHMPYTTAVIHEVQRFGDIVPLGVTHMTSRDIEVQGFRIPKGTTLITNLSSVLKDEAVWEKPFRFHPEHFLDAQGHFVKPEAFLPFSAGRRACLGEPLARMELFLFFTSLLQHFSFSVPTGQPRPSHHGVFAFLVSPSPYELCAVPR
Sequence of Voltage-dependent L-type calcium channel subunit alpha-1C (Q13936 whole entry): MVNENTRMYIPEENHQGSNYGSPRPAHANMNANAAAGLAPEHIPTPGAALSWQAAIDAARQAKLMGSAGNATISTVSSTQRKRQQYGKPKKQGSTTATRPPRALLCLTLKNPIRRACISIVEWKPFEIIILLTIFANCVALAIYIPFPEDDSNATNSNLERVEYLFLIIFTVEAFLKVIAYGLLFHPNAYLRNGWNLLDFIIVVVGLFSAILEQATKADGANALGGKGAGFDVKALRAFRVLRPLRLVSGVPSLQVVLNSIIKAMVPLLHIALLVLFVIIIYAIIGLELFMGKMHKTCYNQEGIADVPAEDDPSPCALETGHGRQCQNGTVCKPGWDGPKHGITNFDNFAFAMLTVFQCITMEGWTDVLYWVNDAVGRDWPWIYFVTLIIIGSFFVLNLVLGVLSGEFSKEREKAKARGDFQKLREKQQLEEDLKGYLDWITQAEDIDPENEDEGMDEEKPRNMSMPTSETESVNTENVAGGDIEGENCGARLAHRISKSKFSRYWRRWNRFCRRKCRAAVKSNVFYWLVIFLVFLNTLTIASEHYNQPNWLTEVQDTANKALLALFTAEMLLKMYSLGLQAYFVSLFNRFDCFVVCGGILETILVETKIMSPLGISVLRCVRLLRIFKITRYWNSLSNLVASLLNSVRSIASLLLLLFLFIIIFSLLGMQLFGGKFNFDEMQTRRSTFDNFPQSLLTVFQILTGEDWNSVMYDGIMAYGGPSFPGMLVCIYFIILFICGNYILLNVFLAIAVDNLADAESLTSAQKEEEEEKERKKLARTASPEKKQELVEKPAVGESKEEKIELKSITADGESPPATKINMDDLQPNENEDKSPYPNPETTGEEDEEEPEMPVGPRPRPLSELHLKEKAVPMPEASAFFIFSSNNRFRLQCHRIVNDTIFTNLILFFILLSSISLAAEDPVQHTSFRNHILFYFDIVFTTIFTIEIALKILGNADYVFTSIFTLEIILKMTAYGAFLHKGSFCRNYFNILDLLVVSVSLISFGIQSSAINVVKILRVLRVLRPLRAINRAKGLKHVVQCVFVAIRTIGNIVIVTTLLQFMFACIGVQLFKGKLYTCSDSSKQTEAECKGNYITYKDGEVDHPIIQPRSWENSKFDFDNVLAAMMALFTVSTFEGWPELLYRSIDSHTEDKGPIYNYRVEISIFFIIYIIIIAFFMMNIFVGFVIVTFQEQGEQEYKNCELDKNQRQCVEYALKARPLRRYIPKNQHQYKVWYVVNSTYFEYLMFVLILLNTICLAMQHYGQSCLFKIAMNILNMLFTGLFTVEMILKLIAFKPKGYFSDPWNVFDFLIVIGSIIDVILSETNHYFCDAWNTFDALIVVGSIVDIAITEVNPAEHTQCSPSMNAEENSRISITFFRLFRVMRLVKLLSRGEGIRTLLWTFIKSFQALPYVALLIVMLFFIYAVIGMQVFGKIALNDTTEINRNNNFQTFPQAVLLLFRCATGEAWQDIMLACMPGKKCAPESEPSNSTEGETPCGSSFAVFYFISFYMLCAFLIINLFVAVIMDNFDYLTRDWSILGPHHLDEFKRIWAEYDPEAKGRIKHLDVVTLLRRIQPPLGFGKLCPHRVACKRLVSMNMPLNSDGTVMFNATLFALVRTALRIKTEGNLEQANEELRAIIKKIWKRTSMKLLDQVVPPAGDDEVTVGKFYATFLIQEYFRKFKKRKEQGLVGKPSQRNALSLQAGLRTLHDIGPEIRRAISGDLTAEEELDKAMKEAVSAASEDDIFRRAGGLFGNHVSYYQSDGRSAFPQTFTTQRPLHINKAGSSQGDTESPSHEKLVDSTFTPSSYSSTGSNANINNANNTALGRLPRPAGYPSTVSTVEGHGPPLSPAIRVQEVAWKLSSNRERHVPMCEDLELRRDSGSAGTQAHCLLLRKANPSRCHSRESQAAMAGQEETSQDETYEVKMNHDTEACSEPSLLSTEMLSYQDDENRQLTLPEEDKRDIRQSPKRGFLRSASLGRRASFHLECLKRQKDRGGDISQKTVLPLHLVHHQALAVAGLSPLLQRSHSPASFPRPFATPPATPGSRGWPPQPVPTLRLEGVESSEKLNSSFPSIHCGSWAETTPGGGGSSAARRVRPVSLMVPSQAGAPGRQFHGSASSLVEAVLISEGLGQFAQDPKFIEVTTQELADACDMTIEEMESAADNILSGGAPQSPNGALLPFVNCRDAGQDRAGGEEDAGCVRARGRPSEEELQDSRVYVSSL
Sequence of CYP2C9 (P11712 whole entry): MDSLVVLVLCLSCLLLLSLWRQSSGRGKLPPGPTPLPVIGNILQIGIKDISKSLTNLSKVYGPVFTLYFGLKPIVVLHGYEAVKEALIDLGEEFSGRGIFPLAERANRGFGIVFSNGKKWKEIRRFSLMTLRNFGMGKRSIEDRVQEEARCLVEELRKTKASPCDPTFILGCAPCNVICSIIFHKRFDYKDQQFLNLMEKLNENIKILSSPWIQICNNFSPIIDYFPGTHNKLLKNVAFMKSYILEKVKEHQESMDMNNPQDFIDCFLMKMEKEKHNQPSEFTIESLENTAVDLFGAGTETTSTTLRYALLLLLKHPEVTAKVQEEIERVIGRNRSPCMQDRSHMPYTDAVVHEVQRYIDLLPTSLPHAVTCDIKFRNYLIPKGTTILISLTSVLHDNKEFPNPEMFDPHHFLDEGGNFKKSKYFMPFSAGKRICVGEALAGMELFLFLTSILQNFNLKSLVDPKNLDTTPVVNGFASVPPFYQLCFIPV
Sequence of CYP3A4 (P08684 whole entry): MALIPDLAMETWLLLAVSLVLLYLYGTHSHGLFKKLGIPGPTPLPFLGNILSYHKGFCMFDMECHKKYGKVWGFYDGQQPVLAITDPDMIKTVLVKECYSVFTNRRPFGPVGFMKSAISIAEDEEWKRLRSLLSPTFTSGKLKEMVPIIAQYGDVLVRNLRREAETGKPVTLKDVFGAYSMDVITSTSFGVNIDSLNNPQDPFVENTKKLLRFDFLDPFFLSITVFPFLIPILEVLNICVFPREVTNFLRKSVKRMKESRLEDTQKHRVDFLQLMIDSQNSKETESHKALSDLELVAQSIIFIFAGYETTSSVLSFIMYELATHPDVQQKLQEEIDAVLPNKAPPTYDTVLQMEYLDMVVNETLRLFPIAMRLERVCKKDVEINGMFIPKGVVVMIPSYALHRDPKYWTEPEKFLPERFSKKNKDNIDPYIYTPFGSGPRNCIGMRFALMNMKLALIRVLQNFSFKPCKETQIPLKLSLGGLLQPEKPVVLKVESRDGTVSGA
Sequence of Voltage-gated inwardly rectifying potassium channel KCNH2 (Q12809 whole entry): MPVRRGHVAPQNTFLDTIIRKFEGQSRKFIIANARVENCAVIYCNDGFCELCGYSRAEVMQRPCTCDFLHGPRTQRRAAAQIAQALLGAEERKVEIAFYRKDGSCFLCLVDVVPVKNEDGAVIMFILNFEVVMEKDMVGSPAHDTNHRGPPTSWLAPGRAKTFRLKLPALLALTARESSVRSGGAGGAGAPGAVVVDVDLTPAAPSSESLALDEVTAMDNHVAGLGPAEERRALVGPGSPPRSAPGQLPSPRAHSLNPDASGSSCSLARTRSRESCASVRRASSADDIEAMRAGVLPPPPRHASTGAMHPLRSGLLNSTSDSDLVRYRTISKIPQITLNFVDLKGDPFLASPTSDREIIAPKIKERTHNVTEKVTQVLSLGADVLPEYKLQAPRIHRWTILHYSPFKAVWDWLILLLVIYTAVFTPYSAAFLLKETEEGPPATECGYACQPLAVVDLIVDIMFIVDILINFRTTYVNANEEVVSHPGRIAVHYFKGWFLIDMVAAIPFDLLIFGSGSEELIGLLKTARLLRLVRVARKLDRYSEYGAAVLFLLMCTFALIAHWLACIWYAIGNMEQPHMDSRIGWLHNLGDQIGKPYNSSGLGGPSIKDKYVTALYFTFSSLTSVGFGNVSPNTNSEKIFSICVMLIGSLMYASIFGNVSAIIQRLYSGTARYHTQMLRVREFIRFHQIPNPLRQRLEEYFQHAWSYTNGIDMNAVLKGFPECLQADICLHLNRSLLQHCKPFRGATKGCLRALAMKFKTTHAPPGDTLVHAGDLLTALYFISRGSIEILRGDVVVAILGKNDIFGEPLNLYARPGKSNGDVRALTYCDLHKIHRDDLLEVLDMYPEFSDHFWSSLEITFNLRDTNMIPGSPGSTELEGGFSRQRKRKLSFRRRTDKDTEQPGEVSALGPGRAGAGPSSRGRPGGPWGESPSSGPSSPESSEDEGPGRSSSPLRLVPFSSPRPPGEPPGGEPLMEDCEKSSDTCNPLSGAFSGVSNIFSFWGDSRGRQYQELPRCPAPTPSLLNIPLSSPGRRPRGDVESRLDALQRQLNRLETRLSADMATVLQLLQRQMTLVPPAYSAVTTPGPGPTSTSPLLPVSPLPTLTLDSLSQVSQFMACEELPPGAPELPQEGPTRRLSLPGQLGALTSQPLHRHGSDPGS

Compound | IC50 [1] [µM] | other results
NCc1nc2ccccc2s1 | 363 | 
Nc1ccnc(-c2cccc(C#CCCO)c2)c1 | 2.6 | 
Cc1cccc(Nc2nccc3ccoc23)n1 | 9 | 
Nc1ccnc(-c2cccc(C#Cc3ccccc3)c2)c1 | 1.2 | 
Nc1cc(Cc2ccccn2)nc(-c2ccccc2)c1 | 5.8 | 
COc1cccnc1Nc1cccc(C)n1 | 190 | 
CN1CCN(c2ccc(-c3ccc4c(c3)CCNC4)cc2)CC1 | 14.4 | 
CN1CCN(c2ccc(-c3ccc4c(c3)CCNC4)cc2C(F)(F)F)CC1 | 3.1 | IC50 [2]: > 30 µM; inhibition at 10 µM (CYP3A4): < 35%; inhibition at 10 µM (CYP2D6): < 35%; inhibition at 10 µM (CYP2C9): < 35%; fraction unbound [3]: 0.11; logD [4]: 2.13; fraction unbound [5]: 0.011
Cc1cc(N2CCc3cc(Br)ccc3C2)c2ccccc2n1 | 27.6 | 
CC1CCCCN1c1cccc(-c2ccc3c(c2)CCNC3)n1 (stereo unspecified) | 1.7 | 
Cc1cccc(Nc2ccc(-c3ccc(N4CCNCC4)nc3)cc2)n1 | 3.8 | IC50 [2]: 20 µM; inhibition at 10 µM (CYP3A4): < 45%; inhibition at 10 µM (CYP2D6): < 45%; inhibition at 10 µM (CYP2C9): < 45%; Ki [6]: 0.7 µM; fraction unbound [3]: 0.098; logD [4]: 1.99; fraction unbound [5]: 0.007; half-life [7]: 4.8 h; clearance [8]: 11 mL/min/kg; Vd [9]: 3.5 L/kg
CCCc1cc(N)c2cc(C(=O)NCCc3ccc(Cl)cc3)ccc2n1 | 9.6 | 
c1ccc(-c2c[nH]cn2)cc1 |  | inhibition [10]: 66%
Cc1cccc(Nc2ccc(C#CC(C)(C)O)cc2)n1 | 17 | 
Nc1ccnc(-c2ccccc2)c1 | 6.9 | 
Clc1cc(Cl)cc(-c2ccc3c(c2)CCNC3)c1 | 3.3 | 
Nc1cccc(-c2ccccc2)n1 | 763 | 
NCc1cc2ccccc2s1 | 97 | 
c1cc2c(cc1-c1cnc3c(c1)CCN3)CCNC2 | 19.4 | 
COc1ccc2[nH]cc(CN3CCc4cc(-c5cccc(C(F)(F)F)c5)ccc4C3)c2c1 | 103 | 
Brc1ccc2c(c1)CCNC2 | 701 | 
Nc1cc(-c2ccccc2)ncn1 | 130 | 
CCCc1cc(NC)c2cc(C(=O)NCCc3ccc(Cl)cc3)ccc2n1 |  | inhibition [11]: 3%
COc1ccc2[nH]cc(CN3CCc4cc(Br)ccc4C3)c2c1 | 10.9 | 
Brc1ccc2c(c1)CCN2 |  | inhibition [12]: 12%
NCc1ccc(-c2c[nH]cn2)cc1 | 160 | 
FC(F)(F)c1cccc(-c2ccc3c(c2)CCNC3)c1 | 7.1 | 
Nc1ccc(-c2c[nH]cn2)cc1 | 430 | 

Reference: ChEMBL document CHEMBL1770137, “High concentration electrophysiology-based fragment screen: discovery of novel acid-sensing ion channel 3 (ASIC3) inhibitors” (Bioorg Med Chem Lett, 2011)
